Data set [1] concerns ApoB mRNA. In words: Inhibition of ApoB mRNA expression in human primary hepatocytes, qRT-PCR (Taqman assay). The note with it: 72 hours, wells with no compounds added taken as 100%. The format is cell-based. How it is done: FIG. 3 is a graph showing degradation effects of ApoB mRNA in human primary cultured hepatocytes when ApoB-ASO (white column) and an ApoB-ASO conjugate (filled column) are added to the cells. The amounts of ApoB mRNA in the cells are quantitatively evaluated relatively by qRT-PCR (corrected by the amount of actin mRNA). The Y axis represents relative values (%) in the addition groups when the amount of ApoB mRNA in untreated human primary cultured hepatocytes is taken as 100%.
FBS (Gibco) was added to a Modified Lanford Medium (Nissui Pharmaceutical Co., Ltd) to 10%, to prepare an adhesion medium. Frozen human primary hepatocytes (Gibco, Hu8105) were taken out from a liquid nitrogen tank, thawed at 37° C., then immediately poured into CHRM (Invitrogen), and gently mixed, followed by centrifugation (100 g, 10 minutes) at room temperature. The supernatant was removed with an aspirator, and then an adhesion medium heated to 37° C. was added, to prepare a cell suspension. The number of living cells was counted by an automatic counter (Bio-Rad Laboratories, Inc.), and then the cells were seeded on a collagen-coated 24-well plate (the number of living cells seeded: 1.4 to 2.1×10^5 cells/well). After culture in a CO2 incubator for 4 to 5 hours, the cells were confirmed to be adhered with a microscope, and the compound addition experiment described below was performed.
To a Modified Lanford Medium containing 10% FBS, was added the compound of Reference Example 45 with no GalNAc derivatives bound or the compound of Example 208 with a GalNAc derivative bound, to prepare a compound-containing medium with a target concentration (which was 100 nM in ApoB mRNA, expression evaluation (1) and 10 nM and 100 nM in ApoB mRNA expression evaluation (2), as described below). After the medium of human primary hepatocytes in each well cultured in the 24-well plate had been removed by aspiration, the compound-containing medium was added in an amount of 0.5 mL for each, to start incubation 72 hours later, the later-described RNA extraction experiment was performed
Following incubation, the compound-containing medium in each well of human primary hepatocytes was removed by aspiration and the cells were washed with ice-cooled PBS (0.5 mL). A 1/100 amount of 2-Mercaptoethanol was added to the RTL buffer of the RNeasy Mini QIAcube Kit (QIAGEN K.K.) to prepare a cell lysate. The cell lysate was added in an amount of 400 μL per well and collected after incubation at room temperature for 5 minutes. […]
The reverse transcription reaction was performed as follows. […] 20 μL of the reverse transcription reaction product was diluted 5 times with 80 μL of purified water and stored at −30° C. or evaluated by qRT-PCR as follows. […]
In general terms: Real-time PCR tracks product formation cycle by cycle.

In data set [2] the test system is G6PC mRNA (c.648G>T). Description: Repair of abnormal splicing of G6PC mRNA in 293A cells cotransfected with human G6PC full-length plasmid vector (pcDNA hG6PC (c.648G>T)+Int4), qRT-PCR (SYBR Green). The format is cell-based. The conditions noted are these: cotransfection with plasmid vector, oligonucleotide final 20 nM, 24 hours. The procedure:
293A cells were maintained and cultured in a maintenance medium (DMEM, 10% FBS). In the experiment, cells were seeded on a 6-well plate at a density of 2×10^5 cells/well and on a 12-well plate at a density of 1×10^5 cells/well, and the compound of each example and a plasmid vector were simultaneously introduced on the next day, as will be described later, to be used for evaluation.
The compound of each example and a plasmid vector were cotransfected as follows.
In the case of using a 6-well plate, 250 μL of Opti-MEM Medium (Gibco), 0.50 μL of plasmid vector (1 mg/mL), and 4.0 μL (final: 20 nM) of the compound produced in each example (12.5 μM) as solution A and 250 μL of Opti-MEM Medium (Gibco) and 6.0 μL of Lipofectamine2000 (Invitrogen) as solution B were prepared per well, and solution A and solution B were mixed. […]
A human G6PC full-length plasmid vector (pcDNA hG6PC (c.648G>T)+Int4) and each oligonucleotide (15e_001, 15e_002, and the compound of Example 93 of International Publication No. WO 2004/048570 as a control) were cotransfected and evaluated by qRT-PCR (SYBR Green) for whether abnormal splicing due to G6PC (c.648G>T) was repaired. […]

As to “X^20-G^e2s-C^e2s-A^s-T^s-T^s-G^s-G^s-T^s-A^s-T^s-T^e2s-C^e2s-A^e2s-H [ApoB-ASO conjugate]”, the “inhibition of ApoB mRNA expression” value in data set [1] (10 nM) is 30.3%; in data set [1] (100 nM) it was 68.6%.
With “ApoB-ASO: oligonucleotide of the Example 24 sequence (SEQ ID No: 96) with no GalNAc units bound (AGCATTGGTATTCA; listed as DNA, further chemistry not given here)”, the figures for the “inhibition of ApoB mRNA expression” value in data set [1] (10 nM) and in data set [1] (100 nM) were 4.4% and 41.2%, respectively.
For the substance “15e_001: oligonucleotide sequence 15e_001, the sequence of Example 8 (SEQ ID No: 40), tested as oligonucleotide (AAUCCGATGGCGAAG; chemistry not given here) [Example 15e_001]”, in data set [2], the “abnormal splicing of G6PC mRNA due to G6PC (c.648G>T) repaired” value is listed as “normalized”.
